Consider one molecule from patent US20240351988A1, “ARYL HYDROCARBON RECEPTOR MODULATORS AND THEIR USE IN THE TREATMENT OF DISEASES AND DISORDERS” (Allianthera (Suzhou) Biopharmaceutical Co., Ltd., priority 2021, published 2024).

Assay [1] concerns the target T1, Human Aryl Hydrocarbon Receptor (AhR) (Homo sapiens, UniProt P35869).
T1 construct: purchased INDIGO Bioscience #1B06001-32; host or cells: AhR Reporter Cell (kit's proprietary reporter cells)
T1 sequence (P35869 11-848): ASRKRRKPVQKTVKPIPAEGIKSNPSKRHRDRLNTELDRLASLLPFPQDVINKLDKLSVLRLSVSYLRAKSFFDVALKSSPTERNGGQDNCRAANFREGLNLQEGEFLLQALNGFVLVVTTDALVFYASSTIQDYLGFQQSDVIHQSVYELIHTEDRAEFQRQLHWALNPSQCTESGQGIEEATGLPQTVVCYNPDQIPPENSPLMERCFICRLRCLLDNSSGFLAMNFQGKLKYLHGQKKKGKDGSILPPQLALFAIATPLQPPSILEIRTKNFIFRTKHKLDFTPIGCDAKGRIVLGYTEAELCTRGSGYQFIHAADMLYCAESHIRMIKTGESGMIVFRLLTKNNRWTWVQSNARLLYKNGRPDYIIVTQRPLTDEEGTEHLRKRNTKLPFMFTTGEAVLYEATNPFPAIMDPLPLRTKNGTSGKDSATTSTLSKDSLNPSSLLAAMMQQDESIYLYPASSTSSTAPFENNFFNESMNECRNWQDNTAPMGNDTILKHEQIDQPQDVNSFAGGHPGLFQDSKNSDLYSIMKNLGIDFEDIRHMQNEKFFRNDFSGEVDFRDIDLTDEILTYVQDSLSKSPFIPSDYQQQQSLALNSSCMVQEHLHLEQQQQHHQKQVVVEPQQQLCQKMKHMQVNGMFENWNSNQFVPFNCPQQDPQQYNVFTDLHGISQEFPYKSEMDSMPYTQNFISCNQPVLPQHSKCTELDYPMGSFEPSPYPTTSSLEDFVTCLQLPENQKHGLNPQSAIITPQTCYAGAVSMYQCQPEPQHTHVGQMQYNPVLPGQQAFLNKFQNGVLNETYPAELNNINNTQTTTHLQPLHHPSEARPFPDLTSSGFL
The assay can be described thus: AHR antagonist reporter assay in human cell line (INDIGO AhR Reporter Assay System, kynurenic acid activated). The assay is classed as cell-based. The conditions noted are these: 200 μM kynurenic acid, 24 hours, luciferase; read-out: AhR Reporter Assay KA Antagonist Mode: IC50. Put shortly:
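AhR reporter cells activated with 200 μM kynurenic acid and exposed to compound dilution series in duplicate for 24 h. Firefly luciferase readout, normalized to positive (literature antagonists or unactivated cells) and negative controls.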
(In general: Reporter assays use an easily measured gene product as a stand-in for the process of interest.)

For assay [2], the system named is AHR-regulated gene CYP1A1 in human monocytic U937 cell line. Put plainly: AHR-regulated CYP1A1 expression in U937 cells (qPCR, kynurenic acid stimulated). The assay is classed as cell-based. The conditions noted are these: U-937, 200 μM KA, 16 hours, CYP1A1 vs GAPDH, read-out: Cyp ANATAG mode assay: IC50. As for the experimental part: To evaluate the AHR inhibitory activity of the test compounds, quantitative PCR analysis was used to determine expression level of the AHR-regulated gene CYP1A1 in a human monocytic U937 cell line upon stimulation of 200 μM kynurenic acid (KA) in the absence or presence of AHR inhibitor. U937 cells were seeded at a concentration of 5×10^5 cells/well in 200 μL of growth medium in 96-well cell culture microplates. CYP1A1 expression was induced with 200 μM KA (positive control) in the absence or presence of the test compounds for 16 hours. Human U937 cells were typically incubated with eight different concentrations of test compounds (typical dilution: […], 3.2 nM, 16 nM, 80 nM, 400 nM, 2 μM, 10 μM) and analyzed in duplicate on the same cell culture microplate. After stimulation, the media was removed, the cell RNA was isolated using RNeasy Mini Kit (Qiagen, 74104) and reverse-transcribed to cDNA using PrimeScript RT reagent Kit (Perfect Real Time) (TaKaRa, RR037A). Unstimulated cells were used as the negative control. Taqman probes for human CYP1A1 (Hs01054797_g1) and human GAPDH (Hs02786624_g1) were used to analyze fold expression of CYP1A1 of GAPDH.

For a further assay, the system named is CT26 tumor cells. The assay can be described thus: Anti-tumor activity in mice bearing CT26 tumors. The assay is classed as in vivo, BALB/C mouse. Conditions: CT26, female BALB/C; compound 10 mg/kg orally 16 days; anti PD-1 10 mg/kg i.p. twice every week; FIG. 1. As for the experimental part: Female BALB/C mouse was inoculated subcutaneously on the right flank with CT26 tumor cells (3×10^5) in 0.1 ml of RPMI 1640 Medium without serum for tumor development. Mice were randomized into 4 groups according to body weight on Day 4 after inoculation. The tumor-bearing mice were treated with Vehicle, anti PD-1 antibody (RMP1-14, BioXCell Catalog No. BP0146), a AHR antagonist compound as disclosed herein and a combination therapy of a AHR antagonist compound as disclosed herein and the anti PD-1 (or established treatment). The AHR antagonist compound was dosed orally at for example 10 mg/kg alone or in combination with established treatment for 16 days. When the established treatment was PD-1 antibody, the antibody was administered via intraperitoneal injection at 10 mg/kg, twice every week.

Each structure is given as a SMILES string.

In the case of `C[C@@H](CO)NC(=O)c1cc(-c2ccc(-c3ccc(F)cc3)nc2)nn(-c2cnn(C)c2)c1=O` [example 184], the IC50 in assay [1] and in assay [2] was < 100 nM in each case. For the same molecule, in the assay on CT26 tumor cells, the “tumor volume compared with Vehicle group” value is listed as “significantly reduced tumor volume”.
